Patent publication US11046686B2, “Thiadiazole IRAK4 compounds” (Gilead Sciences, Inc., priority 2018, dated 2021)

Test system: TNFα
Assay: IRAK4 Monocyte TNFα Cell Based Assay
Set-up: species or system human
Conditions: human monocytes; second part of Table 2, compounds 33-343; unit inferred; read-out: EC50 MONO TNF HTRF
Method: IRAK4 Monocyte TNFα Cell Based Assay Procedure:
The cell suspension was then plated at a density of 5,000 cells/well onto black 384 well Greiner clear bottom plates. Plates were pre-spotted with test compounds and serially diluted in DMSO where 40 nL/well were delivered using the Echo 550 acoustic liquid dispenser (Labcyte®) for a final DMSO concentration of 0.1%. Plated cells were treated with compound for 1 hour at 37° C. Cells were then stimulated with 50 pg/ml of LPS (Sigma) excluding outside columns of plate used for unstimulated cell control wells. Cells were incubated for an additional 4 hours at 37° C. Cells were then spun out of the media and 5 μl of sample were taken and analyzed for total TNFα content using the TR-FRET Human TNFα detection system (CisBio). This system utilizes two labeled antibodies (cryptate and XL665) that bind to two different epitopes of the TNFα molecule and produce FRET signal proportional to the concentration of TNFα in the sample. Detection antibodies are mixed 50:50 and 5 μL were dispensed into each well. Plates were covered with clear seals and incubated at room temp overnight. […] Percent of control was calculated as follows: % Control=100×(Ratiosample−Ratio0% stimulation)/(Ratio100% Stimulation−Ratio0% Stimulation) where unstimulated cells (0% stimulation) were the negative control and stimulated cells (100% stimulation) were used as the positive control.

SMILES | EC50 [nM]
CC(=O)N1CCC2(CC1)CN(c1nnc(-c3cnc(-c4ccc5cc(C#N)cnn45)cc3NC(C)C)s1)C2 [Example 67, 7-(5-(5-(7-acetyl-2,7-diazaspiro[3.5]nonan-2-yl)-1,3,4-thiadiazo1-2-yl)-4-(isopropylamino)pyridin-2-yl)pyrrolo[1,2-b]pyridazine-3-carbonitrile] | 10.4
CC(=O)N[C@@H]1C[C@H]2C[C@@H]1CN2c1nnc(-c2cnc(-c3ccc4cc(C#N)cnn34)cc2NC(C)C)s1 [Example 73, N-((1R,4R,5R)-2-(5-(6-(3-cyanopyrrolo[1,2-]pyridazin-7-yl)-4-(isopropylamino)pyridin-3-yl)-1,3,4-thiadiazol-2-yl)-2-azabicyclo[2.2.1]heptan-5-yl)acetamide] | 64.1
CC(=O)N1CCC2(CC1)CN(c1nnc(-c3cnc(-c4ccc5cc(C#N)cnn45)cc3NC3COC3)s1)C2 [Example 75, 7-(5-(5-(7-acetyl-2,7-diazaspiro[3.5]nonan-2-yl)-1,3,4-hiadiazol-2-yl)-4-(oxetan-3-ylamino)pyridin-2-yl)pyrrolo[1,2-b]pyridazine-3-carbonitrile] | 3.2
CC(=O)N1CCC2(CC1)CN(c1nnc(-c3cnc(-c4ccc5cc(C#N)cnn45)cc3NC3CCOCC3)s1)C2 [Example 76, 7-(5-(5-(7-acetyl-2,7-diazaspiro[3.5]nonan-2-yl)-1,3,4-hiadiazol-2-yl)-4-((tetrahydro-2H-pyran-4-yl)amino)pyridin-2-yl)pyrrolo[1,2-b]pyridazine-3-carbonitrile] | 4.4
CC(=O)NC1CCC2(CC1)CN(c1nnc(-c3cnc(-c4ccc5cc(C#N)cnn45)cc3N[C@H](C)C#N)s1)C2 [Example 77] | 3.9
CC(=O)NC1CCC2(CC1)CN(c1nnc(-c3cnc(-c4ccc5cc(C#N)cnn45)cc3NC3COC3)s1)C2 [Example 78, N-(2-(5-(6-(3-cyanopyrrolo[1,2-b]pyridazin-7-yl)-4-(oxetan-3-ylamino)pyridin-3-yl)-1,3,4-thiadiazo1-2-yl)-2-azaspiro[3.5]nonan-7-yl)acetamide] | 8.9
CC(C)Nc1cc(-c2ccc3cc(C#N)cnn23)ncc1-c1nnc(C(C)(C)O)s1 [Example 80, 7-(5-(5-(2-hydroxypropan-2-yl)-1,3,4-thiadiazol-2-yl)-4-(isopropylamino)pyridin-2-yl)pyrro1o[1,2-b]pyridazine-3-carbonitrile] | 114
CC(C)Nc1cc(-c2ccc3cc(C#N)cnn23)ncc1-c1nnc(N2CC3(CCC(C)(O)CC3)C2)s1 [Example 82, 7-(5-(5-(7-hydroxy-7-methyl-2-azaspiro[3.5]nonan-2-yl)-1,3,4-thiadiazo1-2-yl)-4-(isopropylamino)pyridin-2-yl)pyrrolo[1,2-b]pyridazine-3-carbonitrile] | 23.1
CC(=O)N[C@H]1CC[C@@H](c2nnc(-c3cnc(-c4ccc5cc(C#N)cnn45)cc3NC(C)C)s2)OC1 [Example 84, N-((3S,6S)-6-(5-(6-(3-cyanopyrro1o[1,2-b]pyridazin-7-yl)-4-(isopropylamino)pyridin-3-yl)-1,3,4-thiadiazol-2-yl)tetrahydro-2H-pyran-3-yl)acetamide] | 8.6
CC(C)Nc1cc(-c2ccc3cc(C#N)cnn23)ncc1-c1nnc(N2C[C@H]3CC[C@@H](C2)[C@@H]3NC(=O)C(C)(C)O)s1 [Example 85, N-((1R,5S,8s)-3-(5-(6-(3-cyanopyrrolo[1,2-b]pyridazin-7-yl)-4-(isopropylamino)pyridin-3-yl)-1,3,4-thiadiazol-2-yl)-3-azabicyclo[3.2.1]octan-8-yl)-2-hydroxy-2-methylpropanamide] | 3.3
C[C@H](C#N)Nc1cc(-c2ccc3cc(C#N)cnn23)ncc1-c1nnc(N2C[C@H]3CC[C@@H](C2)[C@@H]3NC(=O)C(C)(C)O)s1 [Example 86] | 0.6
CC(C)(O)C(=O)N[C@@H]1[C@@H]2CC[C@H]1CN(c1nnc(-c3cnc(-c4ccc5cc(C#N)cnn45)cc3NC3COC3)s1)C2 [Example 87, N-((1R,5S,8s)-3-(5-(6-(3-cyanopyrrolo[1,2-b]pyridazin-7-yl)-4-(oxetan-3-ylamino)pyridin-3-yl)-1,3,4-thiadiazol-2-yl)-3-azabicyclo[3.2.1]octan-8-yl)-2-hydroxy-2-methylpropanamide] | 2.1
CC(C)Nc1cc(-c2ccc3cc(C#N)cnn23)ncc1-c1nnc(N2C[C@H]3CC[C@@H](C2)[C@@H]3NC(=O)[C@H]2C[C@](C)(O)C2)s1 [Example 92, (1r,3R)-N-((1R,5S,8s)-3-(5-(6-(3-cyanopyrrolo[1,2-b]pyridazin-7-yl)-4-(isopropylamino)pyridin-3-yl)-1,3,4-thiadiazol-2-yl)-3-azabicyclo[3.2.1]octan-8-yl)-3-hydroxy-3-methylcyclobutane-1-carboxamide] | 5
CC(C)Nc1cc(-c2ccc3cc(C#N)cnn23)ncc1-c1nnc(N2C[C@H]3CC[C@@H](C2)[C@@H]3NC(=O)[C@H]2C[C@@](C)(O)C2)s1 [Example 93, (1s,3S)-N-((1R,5S,8s)-3-(5-(6-(3-cyanopyrrolo[1,2-b]pyridazin-7-yl)-4-(isopropylamino)pyridin-3-yl)-1,3,4-thiadiazol-2-yl)-3-azabicyclo[3.2.1]octan-8-yl)-3-hydroxy-3-methylcyclobutane-1-carboxamide] | 5.9
CC(C)Nc1cc(-c2ccc3cc(C#N)cnn23)ncc1-c1nnc(N2C[C@H]3CC[C@@H](C2)[C@@H]3NC(=O)C2(C)COC2)s1 [Example 94] | 4
CC(C)Nc1cc(-c2ccc3cc(C#N)cnn23)ncc1-c1nnc(N2C[C@H]3CC[C@@H](C2)[C@@H]3NC(=O)C2(C)CCOCC2)s1 [Example 95, N-((1R,5S,8s)-3-(5-(6-(3-cyanopyrrolo[1,2-b]pyridazin-7-yl)-4-(isopropylamino)pyridin-3-yl)-1,3,4-thiadiazol-2-yl)-3-azabicyclo[3.2.1]octan-8-yl)-4-methyltetrahydro-2H-pyran-4-carboxamide] | 4.1
CC(C)Nc1cc(-c2ccc3cc(C#N)cnn23)ncc1-c1nnc(N2C[C@H]3CC[C@@H](C2)[C@@H]3NC(=O)C(C)(C)C(=O)O)s1 [Example 97] | 21.7
CC(C)Nc1cc(-c2ccc3cc(C#N)cnn23)ncc1-c1nnc(N2C[C@H]3CC[C@@H](C2)[C@@H]3NC(=O)CN=S(C)(C)=O)s1 [Example 98, N-((1R,5S,8s)-3-(5-(6-(3-cyanopyrrolo[1,2-b]pyridazin-7-yl)-4-(isopropylamino)pyridin-3-yl)-1,3,4-thiadiazol-2-yl)-3-azabicyclo[3.2.1]octan-8-yl)-2-((dimethyl(oxo)-16-sulfanylidene)amino)acetamide] | 3.2
CC(=O)NC1CCC2(CC1)CN(c1nnc(-c3cnc(-c4ccc5cc(C#N)cnn45)cc3NC3(C)COC3)s1)C2 [Example 99] | 5.8
CC(C)Nc1cc(-c2ccc3cc(C#N)cnn23)ncc1-c1nnc(N2C[C@H]3CC[C@@H](C2)[C@@H]3NC(=O)C2CCN(C)CC2)s1 [Example 100, N-((1R,5S,8s)-3-(5-(6-(3-cyanopyrrolo[1,2-b]pyridazin-7-yl)-4-(isopropylamino)pyridin-3-yl)-1,3,4-thiadiazol-2-yl)-3-azabicyclo[3.2.1]octan-8-yl)-1-methylpiperidine-4-carboxamide] | 2.1
CC(C)(O)C(=O)N[C@@H]1[C@@H]2CC[C@H]1CN(c1nnc(-c3cnc(-c4ccc5cc(C#N)cnn45)cc3NC3CCOCC3)s1)C2 [Example 101, N-((1R,5S,8s)-3-(5-(6-(3-cyanopyrrolo[1,2-b]pyridazin-7-yl)-4-((tetrahydro-2H-pyran-4-yl)amino)pyridin-3-yl)-1,3,4-thiadiazol-2-yl)-3-azabicyclo[3.2.1]octan-8-yl)-2-hydroxy-2-methylpropanamide] | 1.2
CC(C)Nc1cc(-c2ccc3cc(C#N)cnn23)ncc1-c1nnc(N2C[C@H]3CC[C@@H](C2)[C@@H]3NC(=O)C(=O)N=S(C)(C)=O)s1 [Example 103, N1-((lR,5S,8s)-3-(5-(6-(3-cyanopyrrolo[1,2-b]pyridazin-7-yl)-4-(isopropylamino)pyridin-3-yl)-1,3,4-thiadiazol-2-yl)-3-azabicyclo[3.2.1]octan-8-yl)-N2-(dimethyl(oxo)-16-sulfanylidene)oxalamide] | 1.4
COC(=O)N1CCN(C(=O)N[C@@H]2[C@@H]3CC[C@H]2CN(c2nnc(-c4cnc(-c5ccc6cc(C#N)cnn56)cc4NC(C)C)s2)C3)CC1 [Example 105, methyl 4-(((1R,5S,8s)-3-(5-(6-(3-cyanopyrrolo[1,2-b]pyridazin-7-yl)-4-(isopropylamino)pyridin-3-yl)-1,3,4-thiadiazol-2-yl)-3-azabicyclo[3.2.1]octan-8-yl)carbamoyl)piperazine-1-carboxylate] | 4.2
CC(C)Nc1cc(-c2ccc3cc(C#N)cnn23)ncc1-c1nnc(N2C[C@H]3CC[C@@H](C2)[C@@H]3NC(=O)N2CCN(S(C)(=O)=O)CC2)s1 [Example 106, N-((1R,5S,8s)-3-(5-(6-(3-cyanopyrrolo[1,2-b]pyridazin-7-yl)-4-(isopropylamino)pyridin-3-yl)-1,3,4-thiadiazol-2-yl)-3-azabicyclo[3.2.1]octan-8-yl)-4-(methylsulfonyl)piperazine-1-carboxamide] | 2.6
